Experimental data from patent US20190231771A1, “METHODS FOR TREATMENT AND PREVENTION OF OPIOID INDUCED CONSTIPATION USING ORAL COMPOSITIONS OF METHYLNALTREXONE” (Salix Pharmaceuticals, Ltd., priority 2011, published 2019).
“And” between values parts separate entries of the source, which are not always exact repeats. Identical values can stand only once. “Also recorded” adds a separate entry of the source.

Experiments:
[1] = Food effect study: single oral 450 mg MNTX fasted vs high-fat breakfast, 2-period crossover; type: in vivo, human; conditions: for Cmax / half-life / AUC(0-inf) / AUC(0-t) / Tmax: both sexes, human, plasma, oral, 450 mg; for half-life: harmonic mean; for Tmax: median
Description: Presented herein is a single-dose, 2-period crossover study to evaluate the effect of a standard high-fat breakfast on the pharmacokinetics of a single oral dose of 450 mg (3×150 mg tablets) MNTX. The study had 2 arms and 2 dosing periods.
Thirty-two subjects were enrolled into this study. Subjects were randomized at a 1:1 ratio to Arm 1 (fasted then fed) or Arm 2 (fed then fasted). Randomization was stratified by sex. Each subject received a single dose of MNTX 450 mg (administered as 3×150 mg tablets) with a high fat meal (MNTX fed) and after fasting (MNTX fasted). The fasted/fed study periods were separated by 7 days. The sequence of fasted/fed or fed/fasted dosing on Days 1 and 8 was determined by randomization on Day 1.
For the fasted treatment, a single 450 mg (3×150 mg) oral dose of MNTX tablets was administered to subjects following a supervised overnight fast of at least 10 hours. No food was allowed for at least 4 hours post dose.
For the fed treatment, a standard high-fat breakfast was given to the subjects following an overnight fast of at least 10 hours. A single 450 mg (3×150 mg) oral dose of MNTX tablets was administered to subjects 30 minutes after the subject began the meal. No food was allowed for at least 4 hours after drug administration.
Subjects were administered a single oral dose of MNTX tablets (450 mg) on Day 1 and Day 8 after a high fat meal or fasting as follows: (a) MNTX 450 mg (orally as 3×150 mg tablets) administered after a high-fat (high caloric) breakfast, or (b) MNTX 450 mg (orally as 3×150 mg tablets) administered after fasting.
Subjects received a single dose of MNTX 450 mg administered orally as 3×150 mg tablets immediately after a high fat/high calorie meal (MNTX fed) and after fasting (MNTX fasted). A 7-day washout period separated the fasted/fed crossover periods. The sequence of fasted/fed or fed/fasting dosing on Days 1 and 8 was determined by randomization on Day 1. Subjects fasted overnight for a minimum of 10 hours prior to administration of a high fat meal with the single dose of study drug (MNTX fed) or 10 hours prior to administration of the single dose of study drug (MNTX fasted).
Each dose on Day 1 and 8 was administered with 240 mL of room temperature drinking water, and the subjects were instructed to drink all of the water. No food was permitted for 4 hours after drug administration and water was allowed as desired except for 1 hour before and after drug administration. Approximately 4 hours after dosing, a normal meal schedule could be resumed.
A high fat/high caloric meal includes fat content of approximately 50% of total calories in the meal (approximately 800 to 1000 calories total). Subjects receiving the MNTX fed treatment regimen were required to fast for at least 10 hours before breakfast and then to eat the protocol-specified breakfast starting 30 minutes before dosing. The high-fat, high caloric breakfast consisted of the following: • Two slices of toast with ½ pat of butter on each slice. • Two eggs fried in butter. • Two strips of bacon. • Four ounces (113 g) hash brown potatoes. • Eight ounces (240 mL) of whole milk.
Plasma concentrations of MNTX were determined using a validated analytical procedure involving high performance liquid chromatography with tandem quadrupole mass spectrometric detection. Blood samples for determination of MNTX concentrations in plasma were obtained predose (approximately 1 hour prior to dose administration) on Day 1, and at 0.25, 0.5, 1, 2, 4, 6, 8, 10, 12, 16, 24, 36, 48, 72, 96, 120, 144 and 168 hours following each dose administration on Days 1 and 8. Pharmacokinetic parameters that were measured and calculated include the following: […]

[2] = Yuan et al. 2005 J Clin Pharm 45:538-546; cited from earlier work
[3] = cited from earlier work
[4] = Study A: single and multiple dose pharmacokinetics after subcutaneous 12 mg methylnaltrexone; type: in vivo, human; conditions: for AUC(0-t) / Cmax: sc, 12 mg; for AUC(0-t): read-out: AUC0-24; for Cmax: read-out: Cmax
Description: Presented herein is a clinical pharmacokinetics study, Study C, as well as Studies A and B. Study A investigated the single and multiple dose pharmacokinetics of methylnaltrexone (MNTX) and its metabolites (M2: methylnaltrexone sulfate; M4: 6α-methylnaltrexol; and M5: 6β-methylnaltrexol) following the subcutaneous administration of 12 mg methylnaltrexone. In Study B, the single and multiple dose pharmacokinetics of methylnaltrexone (MNTX) and its metabolites (M2, M4, and M5) were examined following a 20-minute short intravenous infusion of 24 mg of methylnaltrexone (MNTX).
Pharmacokinetic parameters included Cmax, AUCt, AUCinf, tmax, t1/2, % Re24, accumulation factor (R) as defined below and metabolite/parent drug ratio.
R=Accumulation Factor(based on AUC0-24(ng·h/mL):Day 7 AUC AUC0-24/Day 1 AUC0-24
Metabolite-Parent Drug ratio(based on ng·h/mL)(%)=100*(Metabolite AUC24/MNTX AUC24)
Note: AUCinf was used in place of AUC AUC0-24 for R and Metabolite-Parent Drug ratio computations following IV administration.

[5] = 450 mg Single-Dose Fasted, mean
[6] = orally administered MNTX, other studies
[7] = human, plasma, 12 mg SC Injection, Day 1, mean
[8] = human, plasma, 12 mg SC Injection, Day 7, mean

## C[N@+]1(CC2CC2)CC[C@]23c4c5ccc(O)c4O[C@H]2C(=O)CC[C@@]3(O)[C@H]1C5.[Br-] [MNTX, (R)—N-(cyclopropylmethyl) noroxymorphone methobromide]
[1]; [5]
  CL/F: 1608644 mL/h
  λz: 0.04 h⁻¹ and 0.0403 h⁻¹
[1]; 450 mg Single-Dose Fed, mean
  CL/F: 2961340 mL/h
  λz: 0.04 h⁻¹ and 0.0413 h⁻¹
[1]; 450 mg single dose
  AUC0-∞ Geometric Mean Ratio, fasted divided by fed: 198.17%
  AUClast Geometric Mean Ratio, fasted divided by fed: 199.28%
  AUClast and AUC0-∞ higher in fasted as compared with fed subjects: approximately 2 fold
  Cmax Geometric Mean Ratio, fasted divided by fed: 273.6% and 273.62%
  arithmetic mean Cmax in fed subjects as share of that in fasted subjects: ~28%
  decrease of systemic exposure by food (as determined by AUC and Cmax): approximately half to three quarters
  systemic exposure (AUClast and AUC0-∞) lower in fed than in fasted subjects: approximately 50%
[1]; 450 mg single dose, Cmax, AUClast, AUC0-∞
  bioequivalence under fed and fasted conditions (80% to 125% range): nonbioequivalence; also recorded: non-bioequivalent; also recorded: not bioequivalent
[1]; 450 mg single doses
  deaths, SAEs, TEAEs resulting in study discontinuation: no deaths, SAEs, or TEAEs resulting in study discontinuation
  effect on cardiac safety parameters or vital signs: No significant effect
  intensity of TEAEs: mild
  relation of TEAEs to MNTX (investigator): No TEAEs were considered by the investigator to be related to MNTX
[1]; 450 mg single doses, 32 subjects
  subjects with headache (most frequent TEAE): 6%
[1]; 450 mg single doses, 32 subjects, whole study
  subjects experiencing at least 1 TEAE: 16%
[1]; 450 mg Single-Dose Fasted, arithmetic mean, read-out: Cmax
  Cmax: 45.5 ng/mL
[1]; 450 mg Single-Dose Fasted
  half-life: ~17 h
  Tmax: 2 h
[1]; 450 mg Single-Dose Fasted, mean, read-out: AUC0-∞
  AUC(0-inf): 364 ng·h/mL
[1]; 450 mg Single-Dose Fasted, mean, read-out: AUClast
  AUC(0-t): 361 ng·h/mL
[1]; 450 mg Single-Dose Fed, arithmetic mean, read-out: Cmax
  Cmax: 12.9 ng/mL
[1]; 450 mg Single-Dose Fed
  half-life: ~17 h
  Tmax: 4 h
[1]; 450 mg Single-Dose Fed, mean, read-out: AUC0-∞
  AUC(0-inf): 169 ng·h/mL
[1]; 450 mg Single-Dose Fed, mean, read-out: AUClast
  AUC(0-t): 166 ng·h/mL
[1]; 450 mg single dose, Fasted, read-out: AUC0-∞, Geometric Least Squares Mean
  AUC(0-inf): 317 ng·h/mL
[1]; 450 mg single dose, Fasted, read-out: AUClast, Geometric Least Squares Mean
  AUC(0-t): 314 ng·h/mL
[1]; 450 mg single dose, Fasted, read-out: Cmax, Geometric Least Squares Mean
  Cmax: 33.4 ng/mL
[1]; 450 mg single dose, Fed, read-out: AUC0-∞, Geometric Least Squares Mean
  AUC(0-inf): 160 ng·h/mL
[1]; 450 mg single dose, Fed, read-out: AUClast, Geometric Least Squares Mean
  AUC(0-t): 158 ng·h/mL
[1]; 450 mg single dose, Fed, read-out: Cmax, Geometric Least Squares Mean
  Cmax: 12.2 ng/mL
[1]; fasted dosing period
  subjects with TEAEs: Four
[1]; fed dosing period
  subjects with TEAEs: 3 subjects
[1]; single dose of MNTX 450 mg
  tolerability: well tolerated
[2]
  dose recovered in urine following IV administration: 31.5%-49.6%
[3]; [6]
  bioavailability (in words): low bioavailability
  plasma protein binding (in words): low plasma protein binding
  tissue distribution (in words): limited tissue distribution outside the GI tract
[3]; prior study
  increase of systemic absorption by fasting: approximately 25%
[4]; 12 mg SC Injection, Day 7, mean
  AUCinf: 223.0 ng·h/mL
[4]; 12 mg SC Injection, AUC0-24 on Day 7/AUC0-24 on Day 1
  R (SC), accumulation factor: 1.05
[4]; [7]
  AUC(0-t): 218 ng·h/mL
  Cmax: 140 ng/mL
  AUC(0-inf): 223 ng·h/mL
[4]; [8]
  AUC(0-t): 223 ng·h/mL
  Cmax: 119 ng/mL
[4]; human, plasma, subcutaneous, 12 mg SC vs 24 mg IV infusion, cross-study, read-out: bioavailability of subcutaneous injection relative to short-term infusion
  bioavailability: 112%
[4]; human, plasma, 12 mg SC Injection, Day 1, median, read-out: Tmax
  Tmax: 0.25 h
[4]; human, plasma, 12 mg SC Injection, day not given, harmonic mean
  half-life: 5.33 h
